From patent EP1028725B1, “USE OF VASOPRESSIN ANTAGONISTS FOR TREATING DISTURBANCES OR ILLNESSES OF THE INNER EAR” (Otogene Aktiengesellschaft, priority 1997, dated 2004)

System: Menschlicher Saccus endolymphaticus
Assay: Light-microscopic autoradiography of 125I-arginine-vasopressin binding on frozen tissue sections
Set-up: species or system menschlich
Conditions: overnight at 4 °C; unspecific binding checked with 10 µM unlabelled Arginin-Vasopressin
Experimental: Menschlicher Saccus endolymphaticus wurde von sechs Autopsien und zwei operierten Patienten mit Einwilligung der Verwandten bzw. der Patienten erhalten. Gefrorene Schnitte (20 µm) wurden auf einem Kryostaten bei -16 °C geschnitten, auf Gelatine-beschichtete Plättchen aufgebracht und über Nacht unter Vakuum bei 4 °C gelagert. […] Die radiomarkierten Schnitte wurden mit NTB-2 Nuklearemulsion (Eastman Kodak) beschichtet und für die lichtmikroskopische Autoradiographie präpariert. Die beschichteten Plättchen wurden in der Dunkelheit bei 4 °C für drei bis acht Tage gelagert. Nach Entwickeln und Fixieren wurden die Plättchen mit Haematoxylin/Eosin gefärbt.

^125I-Arginin-Vasopressin [radioaktivem Vasopressin]
Bindung im Epithel des endolymphatischen Sacks: spezifische Bindung
